Consider 12 compounds from US20090264388A1, “Compounds and Methods of Treating Disorders Associated With Activation of Metachromatic Cells” (Valorisation Recherche HSCM, Limited Partnership, priority 2006, published 2009).

In data set [1] the test system is RBL-2H3 cells. The data set is described as follows: Antigen (DNP-BSA)-induced β-hexosaminidase release (degranulation) in IgE-sensitized RBL-2H3 cells. It is filed as cell-based, rat. The settings on record: for effect on antigenic degranulation / β-hexosaminidase release: DNP-BSA 5 ng/ml and 40 ng/ml, antagonist concentration not stated; for blockade of IgE-dependent activation and degranulation of metachromatic cells, agent alone: antigen-induced maximal degranulation (FIG. 21-28). From the text:
The rat basophilic cell line RBL-2H3 is an art recognized model for studying the activation of metachromatic cells through FcεRI (Oliver et al., “Signal transduction and cellular response in RBL-2H3 mast cells,” Prog. Allergy 42:185-245, 1988).
(§1) The below experiments used the rat basophilic cells RBL-2H3 commercially available from the American Type Culture Collection (ATCC; Manassas, Va.) under accession number CRL-2256. RBL-2H3 cells were passively sensitized with mouse IgE anti-dinitrophenyl conjugated to bovine serum albumin (DNP-BSA) monoclonal antibody for 22 hours, and then stimulated with DNP-BSA (antigen) to induce cell degranulation (FIG. 1).

Data set [2] deals with neurokinin-1 receptor (Homo sapiens, UniProt P25103). The settings on record: cited from earlier work.
neurokinin-1 receptor (Homo sapiens, UniProt P25103), sequence (P25103 whole entry): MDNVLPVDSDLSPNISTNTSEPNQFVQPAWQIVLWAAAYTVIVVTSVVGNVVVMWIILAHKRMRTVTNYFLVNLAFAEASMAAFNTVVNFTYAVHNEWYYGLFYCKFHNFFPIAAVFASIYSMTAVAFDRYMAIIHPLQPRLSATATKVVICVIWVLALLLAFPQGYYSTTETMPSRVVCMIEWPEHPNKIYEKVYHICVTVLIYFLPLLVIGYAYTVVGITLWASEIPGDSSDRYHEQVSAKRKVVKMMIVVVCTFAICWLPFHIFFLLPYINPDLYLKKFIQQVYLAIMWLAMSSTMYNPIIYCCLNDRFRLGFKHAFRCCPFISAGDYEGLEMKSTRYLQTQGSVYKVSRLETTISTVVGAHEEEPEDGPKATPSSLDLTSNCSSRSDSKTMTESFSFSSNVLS
The target of data set [3] is T1, neurokinin-1 receptor (Rattus norvegicus, UniProt P14600).
T1 construct: from tissue; host or cells: rat brain
T1 sequence (P14600 whole entry): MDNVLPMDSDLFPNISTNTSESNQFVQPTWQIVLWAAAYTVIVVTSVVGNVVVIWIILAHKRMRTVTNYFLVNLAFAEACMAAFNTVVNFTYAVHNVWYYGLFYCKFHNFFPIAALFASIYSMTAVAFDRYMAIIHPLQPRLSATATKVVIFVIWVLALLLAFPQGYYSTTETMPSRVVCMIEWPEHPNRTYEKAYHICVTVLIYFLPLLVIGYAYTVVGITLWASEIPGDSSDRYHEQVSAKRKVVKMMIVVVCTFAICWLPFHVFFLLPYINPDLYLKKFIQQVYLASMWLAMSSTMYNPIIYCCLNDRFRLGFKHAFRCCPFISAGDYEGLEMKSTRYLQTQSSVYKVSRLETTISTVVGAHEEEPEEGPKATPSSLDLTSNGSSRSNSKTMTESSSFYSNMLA
Particulars: rat brain; cited from earlier work.

Data set [4] concerns the target T2, neurokinin-1 receptor (Cavia porcellus, UniProt P30547).
T2 construct: pA2: 7.16 (guinea pig ileum); from tissue; host or cells: guinea pig ileum
The settings on record: guinea pig ileum; cited from earlier work.

The target in data set [5] is T3, NK-1 receptors (Homo sapiens, UniProt P25103).
T3 construct: expressed in transfected cells; host or cells: CHO cells
T3 sequence (P25103 whole entry): as the sequence (P25103 whole entry) above
Particulars: CHO cells expressing NK-1 receptors, cited from earlier work.

Data set [6] deals with RBL-2H3 cells. The data set is described as follows: Cell viability by trypan blue exclusion test in RBL-2H3 cells. It is filed as cell-based, rat. The settings on record: IgE-sensitized RBL-2H3 cells stimulated with DNP-BSA (FIG. 3). As to the method: as §1, with “1). To address the issue of an autocrine tachykinergic regulation of metachromatic cell degranulation in response to antigenic activation, IgE-sensitized RBL-2H3 cells were pre-treated with a selective NK-1 receptor antagonist prior to antigen stimulation.” for “1).”

Data set [7] relates to RBL-2H3 cells. Put plainly: Intracellular calcium changes (Fluo-3 AM, epifluorescence microscopy) in RBL-2H3 cells. In kind it is cell-based, rat. Particulars: Fluo-3 AM loaded cells (FIG. 12).
For data set [8], the system named is RBL-2H3 cells. The data set is described as follows: Histamine immunoreactivity (intracellular histamine pools) in IgE-sensitized RBL-2H3 cells stimulated with DNP-BSA. It is filed as cell-based, rat. Particulars: pretreatment 10 μM; DNP-BSA 40 ng/ml. The text has this: Data analysis using the macro built under the Image-Pro Plus platform enabled the representation of the frequency distribution of the maximal intensity for histamine immunoreactivity into RBL-2H3 cells. We arbitrarily divided basophils into six subgroups according to the range of maximal fluorescence intensity detected into the cells, e.g., 300 to 499 IAU (intensity arbitrary unit) or 900-1100 IAU. […] Therefore, frequency distribution analyses confirmed the β-hexosaminidase data by showing that blocking NK-1 receptors inhibits FcεRI clustering-induced metachromatic cell degranulation.

Data set [9] relates to RBL-2H3 cells. Put plainly: Calcium ionophore A23187-induced β-hexosaminidase release in RBL-2H3 cells. In kind it is cell-based, rat. The procedure:
RBL-2H3 cells were stimulated with the calcium ionophore A23187 (SigmaAldrich #C7522) in a concentration-dependent manner to induce metachromatic cell degranulation FIG. 10). […] The maximal inhibition is obtained at the concentration of 10 μM of L-703,606 (FIG. 11).

The mark [10] stands for this setting: antagonist 10 μM, DNP-BSA 5 ng/ml.
Setting [11] is: antagonist 10 μM, DNP-BSA 40 ng/ml.

Entries after “also recorded” stand apart in the source; their conditions may differ. Structures can show the parent of a compound that is named as a salt. Where two headings read alike, the source gives them in different places.

T2 sequence (P30547 whole entry): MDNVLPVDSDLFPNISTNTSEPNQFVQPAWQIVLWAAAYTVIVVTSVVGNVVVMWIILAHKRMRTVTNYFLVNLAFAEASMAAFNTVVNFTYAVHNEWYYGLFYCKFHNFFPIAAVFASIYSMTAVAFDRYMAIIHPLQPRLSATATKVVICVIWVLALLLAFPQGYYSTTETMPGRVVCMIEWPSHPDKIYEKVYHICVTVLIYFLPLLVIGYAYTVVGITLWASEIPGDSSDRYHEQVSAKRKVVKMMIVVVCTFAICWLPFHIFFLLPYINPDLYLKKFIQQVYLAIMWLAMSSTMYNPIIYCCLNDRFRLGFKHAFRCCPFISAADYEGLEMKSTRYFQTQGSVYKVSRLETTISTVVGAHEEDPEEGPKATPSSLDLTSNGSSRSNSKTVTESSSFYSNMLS

Take “[D-Arg^1, D-Phe^5, D- Trp^7,9, Leu^11] substance P [Antagonist D]”: in data set [1], the “effect on antigenic degranulation / β-hexosaminidase release” value was “did not alter; also recorded: lack of inhibition”. Also, the “Affinity (selectivity in words)” value in data set [2] is recorded as “Non-selective”.
As for `Oc1ccc(-c2nc(-c3ccncc3)c(-c3ccc(F)cc3)[nH]2)cc1` [SB202190], the “blockade of IgE-dependent activation and degranulation of metachromatic cells, agent alone” value (“blockade” below) in data set [1] was “potent blocker”.
`C[C@@H]1C[C@H]2[C@@H]3CCC4=CC(=O)C=C[C@]4(C)[C@@]3(F)[C@@H](O)C[C@]2(C)[C@@]1(O)C(=O)CO` [dexamethasone]: in data set [1] (dexamethasone 10^−8 M alone, antigen 40 ng/ml), the “reduction of maximal degranulation” value is listed as 50%.
`COc1cccc(-c2cc(=O)c3ccccc3o2)c1N` [PD98059]: the “blockade” value in [1] is “potent blocker”.
For the compound `Cl.O=c1cc(N2CCOCC2)oc2c(-c3ccccc3)cccc12` [LY-294,002], in [1], the “blockade” value is reported as “potent blocker”.
As for `COc1ccc(-c2cc3nccn3c(Nc3ncccc3C(N)=O)n2)cc1OC` [BAY 61-3606], in data set [1], the “blockade” value is reported as “potent blocker”.
In general, IC50 refers to the point on the concentration scale where inhibition reaches its midpoint. By pA2 is commonly meant the negative logarithm of the molar antagonist concentration that doubles the agonist concentration needed for the same response. Turning to `COc1ccccc1CC(=N)N1C[C@@H]2C(=O)CCC(c3ccccc3)(c3ccccc3)[C@@H]2C1` [RP 67580, (3aR,7aR)-Octahydro-2-[1-imino-2-(2-methoxyphenyl)ethyl]-7,7-diphenyl-4H-isoindol], in data set [3], the IC50 was 10 nM. For the same compound, the “decrease of degranulation induced by 5 ng/ml DNP-BSA” value in data set [1] (setting [10]) is roughly 50%. Further, in data set [1] (setting [11]), the “effect on maximal antigenic degranulation” value was “no significant effect”. Further, the pA2 in [4] was 7.16.
Take `COc1cc(C(=O)N2CC[C@](CCN3CCC(C(N)=O)(c4ccccc4)CC3)(c3ccc(Cl)c(Cl)c3)C2)cc(OC)c1OC` [MDL 105,212]: the “effect on antigenic degranulation / β-hexosaminidase release” value in data set [1] is recorded as “lack of inhibition”. Further, the “effect on cell degranulation induced by 40 ng/ml DNP-BSA” value in data set [1] (antagonist 1 μM (but not 10 μM), DNP-BSA 40 ng/ml) is recorded as “significantly increased”. Further, the “effect on antigen concentration leading to 50% of maximal degranulation” value in [1] (antagonist at both 1 μM and 10 μM, DNP-BSA 5 ng/ml) is “had no effect”.
In the case of `CCCCCCCCc1ccc(CCC(N)(CO)CO)cc1.Cl` [FTY720], in data set [1], the “blockade” value is listed as “potent blocker”.
The same measure, in the same setting: the same measure for `C=CC[C@@H]1/C=C(\C)C[C@H](C)C[C@H](OC)[C@H]2O[C@@](O)(C(=O)C(=O)N3CCCC[C@H]3C(=O)O[C@H](/C(C)=C/[C@@H]3CC[C@@H](O)[C@H](OC)C3)[C@H](C)[C@@H](O)CC1=O)[C@H](C)C[C@@H]2OC` [Tacrolimus]: “potent blocker”.
For the compound `FC(F)(F)c1cc(CO[C@@H]2CCCN[C@@H]2c2ccccc2)cc(C(F)(F)F)c1` [L-733,060, ((2S,3S)-3-[[3,5-bis (Trifluoromethyl)phenyl]methoxy]-2-phenylpiperidine hydrochloride], the “effect on antigen-induced 50% of cell degranulation” value in data set [1] (setting [10]) is on record as “completely abolished”. In data set [1] (setting [11]), the “reduction of maximal antigenic degranulation response” value is roughly 55%. Moreover, in [5] (read-out: IC50), the IC50 was 1 nM.
What is called Kd is a measure of binding affinity in units of concentration. Take `Ic1ccccc1CNC1C2CCN(CC2)C1C(c1ccccc1)c1ccccc1.O=C(O)C(=O)O` [L-703,606, cis-2-(Diphenylmethel)-N-([2-iodophenyl]methyl)-1-azabicyclo (2.2.2) octan-3-amine]: the “cell viability (trypan blue exclusion)” value is on record as “did not alter cell viability” in data set [6] and “not attributable to cell death” in data set [6] (listed as L-703,606 oxalate salt). In addition, in data set [1] (L-703,606 5 μM alone, antigen 40 ng/ml), the “effect on antigen-induced maximal degranulation” value is “weak effect”. The “effect on inhibition by Tacrolimus of antigen-induced maximal cell degranulation” value in data set [1] (L-703,606 10 μM, Tacrolimus 0.01 μM) is on record as “potentiates”. Moreover, in data set [1] (L-703,606 10 μM, cyclosporin A 0.1 μM), the “effect on inhibition by cyclosporin A of antigen-induced maximal cell degranulation” value is on record as “potentiates”. For the same compound, the “effect on inhibition by FTY720 of antigen-induced maximal cell degranulation” value in data set [1] (L-703,606 1, 5 and 10 μM, FTY720 5 μM) is on record as “potentiates”. Besides, the “effect on inhibition by BAY 61-3606 of antigen-induced maximal cell degranulation” value in data set [1] (L-703,606 5 and 10 μM, BAY 61-3606 100 and 250 nM) is “potentiates”. Also, the “effect on inhibition by LY-294,002 of antigen-induced maximal cell degranulation” value in [1] (L-703,606 5 and 10 μM, LY-294,002 1 and 10 μM) was “potentiates”. In data set [1] (L-703,606 5 and 10 μM, PD98059 5, 10 and 25 μM), the “effect on inhibition by PD98059 of antigen-induced maximal cell degranulation” value is given as “potentiates”. Also, the “effect on inhibition by PP1 of antigen-induced maximal cell degranulation” value in [1] (L-703,606 5 and 10 μM, PP1 1 and 5 μM) is “potentiates”. The “effect on inhibition by SB202190 of antigen-induced maximal cell degranulation” value in data set [1] (L-703,606 5 and 10 μM, SB202190 10 and 25 μM) is “potentiates”. In addition, the “effect on antigen-induced 50% of cell degranulation” value in [1] (setting [10]) is on record as “completely abolished”. In data set [1] (setting [11]), the “reduction of maximal antigenic degranulation response” value was roughly 50%. Also, the “inhibition of antigen-induced β-hexosaminidase release” value in data set [1] (antagonist 1 to 10 μM, DNP-BSA 5 ng/ml or 40 ng/ml) is given as “concentration-dependent inhibition”. Also, in data set [1] (no antigen, data not shown), the “effect on basal release of β-hexosaminidase” value is on record as “did not change”. In addition, in data set [1] (range tested 1 to 10 μM), the “most efficient inhibitory concentration for β-hexosaminidase release” value stood at 10 µM. Further, the “effect on calcium ionophore-induced calcium signals” value in data set [7] is reported as “unlikely to be attributable to inhibition of calcium ionophore-induced extracellular calcium signals”. Further, in data set [8], the “depletion of histamine intracellular pools” value was “mostly abolished”. The “concentration giving maximal inhibition of calcium ionophore-induced degranulation” value in [9] (calcium ionophore A23187) turned out to be 10 µM. In addition, the “inhibition of calcium ionophore-induced activation and degranulation” value in [9] (calcium ionophore A23187 (FIG. 11)) was “inhibit, in a concentration-dependent manner”. In data set [5], the 50% inhibitory concentration (IC50) was 2 nM. Moreover, the Kd in data set [2] (35% sites) was 1.5 nM; in data set [2] (65% sites), 0.04 nM.
